“Also recorded” adds a separate entry of the source.
Experiments:
[1] = tested on: DNA methylation (LINE-1) in PBMC DNAs; assay: LINE-1 DNA methylation in PBMC DNAs of patients; type: in vivo, human; conditions: Arm C patients, 200 mg oral AZA alone; Days 1, 8, and 15 of 21-day cycle
Experimental: In one embodiment, PBMC DNA was used for assessing changes in DNA methylation, using assays such as LINE-1 methylation, %5 mdC mass spec, Infinium® Methylation27 Array, and Infinium® Methylation450 Array. In one study, DNA methylation (LINE-1) in PBMC DNAs from patients in clinical studies described in Example 1, dosed with 200 mg oral AZA alone or in combination with CDBCA or ABX, was measured on Days 1, 8, and 15 of 21-day cycle. […] In one study, %5 mdC in PBMC DNAs from patients in clinical studies described in Example 1, dosed with 200 mg oral AZA alone or in combination with CDBCA or ABX, was measured on Days 1, 8, and 15 of 21-day cycle. In one study, methylation levels were measured on Days 1, 8, and 15 of 21-day cycle using Infinium® Methylation27 Array (patients dosed with 200 mg oral AZA alone or in combination with CDBCA or ABX) and density profiles of average methylation levels were analyzed. […] In another study, methylation levels were measured using Infinium® Methylation450 Array (patients dosed with 300 mg oral AZA alone or in combination with CDBCA or ABX) and density profiles of average methylation levels were analyzed, as well as % change of hypermethylated loci (beta >0.7) upon treatment.

DNA methylation in PBMCs = DNA methylation in PBMCs of patients by Infinium Methylation27/Methylation450 Array; type: in vivo, human; conditions: Arm C alone; for patients with DNA hypomethylation in PBMCs: Arm A with CBDCA
[2] = PK exposure of AZA in patients of the clinical study; type: in vivo; conditions: human, plasma; oral AZA 200 mg or 300 mg, alone or in combination; read-out: AUCinf of patients in whom decreases in DNA methylation were observed
[3] = tested on: EBV Z promoter (CpGs 1-3); assay: EBV promoter methylation by pyrosequencing in RAEL cells (Z promoter); type: cell-based, Epstein-Barr Virus
Experimental: (§1) Assay Procedure: The RAEL and Ramos Burkitt's lymphoma cell lines were treated with vehicle (water) or AZA once a day (qd) for the number of days indicated in FIG. 6 and FIG. 15. For the experiment described in FIG. 6, cells were collected on days 1 through 9 (singlicate sample per condition per time point); at each time point, an aliquot of cells was used to purify deoxyribonucleic acid (DNA) (DNeasy Blood & Tissue Kit; Qiagen; Valencia, Calif.) for EBV DNA (Z and R promoters) methylation analysis (FIG. 7; FIG. 8) at EpigenDx (Hopkinton, Mass.), while a second aliquot of cells was lysed in QuantiGene Lysis Buffer for gene expression analysis (FIG. 9 to FIG. 14) using the QuantiGene Multiplex 2.0 assay (Affymetrix; Santa Clara, Calif.). The pyrosequencing assay used at EpigenDx to assess the methylation status of cytosine-phosphate-guanine dinucleotides (CpGs) 1-3 of the EBV Z promoter (Li L, Su X, Choi G, Cao Y, Ambinder R, Tao Q. Methylation profiling of Epstein-Barr virus immediate-early gene promoters, BZLF1 (EBV gene encoding for the Zta transcription factor) and BRLF1 (EBV gene encoding for the Rta transcription factor) in tumors of epithelial, NK- and B-cell origins. BMC Cancer 2012 Mar. 29; 12:125) was ADS3981-FS1, while that for CpGs 16-20 of the EBV R promoter (Li, 2012) was ADS3984-FS2.
(§2) The RAEL EBV^+ Burkitt's lymphoma cell line was treated with vehicle or 0.3 μM AZA once a day for 4 days (FIG. 6). Cells were harvested on days 1 through 9 to assess the effects of AZA on EBV promoter (Zp and Rp) methylation, as well as EBV gene expression. […] Zp and Rp methylation remained low for the remainder of the experiment, even in the absence of continued AZA treatment (FIG. 7; FIG. 8). In parallel with the effects of AZA on EBV promoter methylation, AZA induced expression of EBV genes.

[4] = tested on: EBV R promoter (CpGs 16-20); assay: EBV promoter methylation by pyrosequencing in RAEL cells (R promoter); type: cell-based, Epstein-Barr Virus
Experimental: as §1, §2

BHRF1 = assay: EBV gene expression in RAEL cells, QuantiGene Multiplex 2.0 assay; type: cell-based, Epstein-Barr Virus; conditions: 0.3 μM AZA once a day for 4 days, days 1 through 9, listed as AZA
Experimental: as §1, §2

BLLF1 = assay: as above; type: cell-based, Epstein-Barr Virus; conditions: 0.3 μM AZA once a day for 4 days, days 1 through 9
Experimental: as §1, §2

BRLF1 = assay: as above; type: cell-based, Epstein-Barr Virus; conditions: 0.3 μM AZA once a day for 4 days, days 1 through 9, listed as AZA
Experimental: as §1, §2

EBNA1 = assay: as above; type: cell-based, Epstein-Barr Virus; conditions: 0.3 μM AZA once a day for 4 days, days 1 through 9, listed as AZA
Experimental: as §1, §2

EBNA2 = assay: as above; type: cell-based, Epstein-Barr Virus; conditions: 0.3 μM AZA once a day for 4 days, days 1 through 9, listed as AZA
Experimental: as §1, §2

LMP1 = assay: as above; type: cell-based, Epstein-Barr Virus; conditions: 0.3 μM AZA once a day for 4 days, days 1 through 9, listed as AZA
Experimental: as §1, §2

[5] = tested on: EBV proteins EBNA1, EBNA2, Zta, and LMP1 in RAEL cell line; assay: EBV protein expression by Western blotting in RAEL cell line; type: cell-based, Epstein-Barr virus; conditions: cells collected on day 6
[6] = tested on: EBV proteins EBNA1, EBNA2, Zta, and LMP1 in Ramos cell line; assay: EBV protein expression by Western blotting in Ramos cell line; type: cell-based, Epstein-Barr virus; conditions: AZA once a day for 1 or 2 days, cells collected on day 6, listed as AZA
Experimental: as §1, with “ADS3984-FS2. […]” for “ADS3984-FS2.”

Zta = conditions: RAEL cells; 72 hours; AZA 0.3 or 1.0 uM, ROMI 0.5, 1.0, or 2.0 nM, or combination
higher-risk MDS = conditions: Phase III study; administered subcutaneously; subjects with higher-risk MDS; cited from earlier work
[7] = RAEL EBV+ Burkitt's lymphoma cell line, 0.3 μM AZA once a day for 4 days, harvested days 1 through 9, listed as AZA
[8] = RAEL, 0.3 μM AZA once a day for 4 days
[9] = RAEL, after 0.3 μM AZA once a day for 4 days, up to day 9

Nc1ncn([C@@H]2O[C@H](CO)[C@@H](O)[C@H]2O)c(=O)n1 [5-azacytidine, 4-amino-1-β-D-ribofuranosyl-1,3,5-triazin-2(1H)-one]
DNA methylation (LINE-1) in PBMC DNAs [1]: Decreases in LINE-1 methylation were observed for two patients | change in DNA methylation in PBMCs upon treatment (Infinium Methylation27 Array, density profiles of average methylation levels) (DNA methylation in PBMCs; 200 mg oral AZA, Arm A with CDBCA, Arm B with ABX, Days 1, 8, and 15 of 21-day cycle): decreases in hypermethylated loci (beta >0.7) were observed | patients with DNA hypomethylation in PBMCs (DNA methylation in PBMCs; 200 mg oral AZA, Arm B with ABX): 5/6 | patients with DNA hypomethylation in PBMCs (DNA methylation in PBMCs; 300 mg oral AZA): 3/3 | AUC(0-inf) [2]: > 0.35 µg·h/mL | Zp methylation [3, 7]: causes the demethylation; also recorded: precipitously decreased | time to maximal hypomethylation of Zp [3, 8]: ≤ 4 days | Zp methylation for the remainder of the experiment, in the absence of continued AZA treatment [3, 9]: remained low | Rp methylation [4, 7]: causes the demethylation; also recorded: precipitously decreased | time to maximal hypomethylation of Rp [4, 8]: ≤ 4 days | Rp methylation for the remainder of the experiment, in the absence of continued AZA treatment [4, 9]: remained low | ribonucleic acid expression of BHRF1 (BHRF1): strongly induced expression | ribonucleic acid expression of BLLF1 (BLLF1): did not affect the expression of BLLF1 as much as other genes | ribonucleic acid expression of BRLF1 (BRLF1): strongly induced expression | ribonucleic acid expression of EBNA1 (EBNA1): strongly induced expression | ribonucleic acid expression of EBNA2 (EBNA2): strongly induced expression | ribonucleic acid expression of LMP1 (LMP1): strongly induced expression | expression of the EBV proteins EBNA1, EBNA2, Zta, and LMP1 ([5]; RAEL (EBV+) cell line, AZA once a day for 1 or 2 days, listed as AZA): induces expression of EBV proteins; also recorded: dose-dependently induced expression | induction of EBV proteins, AZA for 2 days compared with AZA for 1 day ([5]; RAEL, Western blotting): greater induction of EBV proteins | expression of the EBV proteins EBNA1, EBNA2, Zta, and LMP1 [6]: not in the EBV-negative (EBV−) Ramos | Zta expression (Zta band intensity with GAPDH as house-keeping protein) (Zta): slight increase in Zta expression | survival and time to AML transformation or death (higher-risk MDS): significantly prolonged survival and time to AML transformation or death
